Columns and labels:
[1] = Pharmacokinetic (PK) studies in rats after oral gavage (plasma free parent drug); settings: for AUC0-24 h fold increase compared with TU group: plasma testosterone exposure; for Tmax / AUC0-24 h: plasma testosterone, mean ± SEM; for AUC0-24 h: normalized to 2 mg/kg equivalent testosterone dose; for Cmax: read-out: Cmax (nmol/L), plasma testosterone, conscious carotid artery cannulated SD female rats, normalized to 2 mg/kg equivalent testosterone dose, mean ± SEM
[2] = system: porcine pancreatic lipase; assay: In vitro hydrolysis of compounds by porcine pancreatic lipase (stability of monoglyceride forms); format: in vitro ADME; settings: simulated intestinal micellar solution, pH 6.5, 37° C., up to 180 minutes; FIG. 9
Procedure: In vitro hydrolysis of testosterone prodrugs was performed via incubation with porcine pancreatic lipase. Briefly, pancreatic lipase solution was prepared prior to the hydrolysis experiment by dispersion of 1 g porcine pancreatin in 5 ml of lipolysis buffer. The suspension was mixed well and centrifuged at 3500 rpm for 15 minutes at 5° C. to provide a supernatant. An amount of 1000 ml of lipolysis buffer was prepared with 0.474 g of tris-maleate (2 mM), 0.206 g of CaCl2·H2O (1.4 mM) and 8.775 g of NaCl (150 mM) adjusted with NaOH to pH 6.5. To assess the potential for prodrug hydrolysis in the intestine, 20 μl of prodrug solution (1 mg/ml dissolved in acetonitrile), 900 μl of simulated intestinal micellar solution [prepared with 0.783 g of NaTDC (3 mM) and 0.291 g of phosphatidyl choline (0.75 mM) in 500 ml lipolysis buffer] and 100 μl of enzyme solution were incubated at 37° C. […] The supernatant was analysed by HPLC-MS for residual compound concentrations, and the potential products of compound hydrolysis were analysed.
On incubation with digestive enzymes, the monoglycerides forms of the prodrugs are formed very rapidly. The stability in simulated intestinal conditions is therefore better assessed by the stability of the monoglycerides form that is generated by the initial digestion process. […]

[3] = Lymphatic transport studies in rats (mesenteric lymph duct cannulated, intraduodenal infusion); settings: for Transport of total TST derivatives in lymph (% of dose): intraduodenal infusion, anaesthetised, mesenteric lymph-duct cannulated female SD rats, mean ± SEM (n≥3) or mean ± range (n=2); for Fold increase (compared with control group dosed with TU): lymphatic transport, testosterone series, female SD rats
[4] = system: lipoprotein lipase (LPL); assay: In vitro release of MPA from prodrugs in rat lymph supplemented with lipoprotein lipase; format: in vitro ADME; settings: LPL 200 unit/ml, 37° C., n=1; FIG. 10
Procedure: In order to probe the release of free MPA from TG prodrugs in the lymphatics (the active site of MPA is in lymphocytes that are enriched in the lymphatic system), MPA prodrugs were incubated with rat lymph supplemented with lipoprotein lipase (LPL, 200 unit/ml). LPL is a key enzyme required for the hydrolysis of lipoprotein associated TG in normal physiological conditions and is therefore expected to be a key contributor to lipolysis of the re-esterified Drug-TG construct in plasma, largely via liberation of FAs in the sn-1 and the sn-3 position of the TG-mimetic, prior to drug release from the 2′ positon via esterase hydrolysis. LPL is tethered to lymphocytes or lymphatic/vascular endothelial cells under physiological conditions. In the current in vitro studies, rat lymph was therefore supplemented with LPL to better reflect the in vivo situation. To start hydrolysis, 10 μl of LPL solution (10,000 unit/ml) was added to a mixture of 10 μl of prodrug solution (1 mg/ml dissolved in acetonitrile) and 500 μl of blank Sprague Dawley rat lymph. The solution was incubated at 37° C. Samples (20 μl) of the incubation solution were taken at 0, 5, 10, 15, 30, 60, 90, 120 and 180 minutes post incubation and added to 980 μl of 9:1 (v/v) ACN-water to stop lipolysis. […] The supernatant was analysed by HPLC-MS/MS for MPA concentrations.

[5] = 'is thought to be'; cited from earlier work

Molecule | AUC0-24 h fold increase compared with TU group ([1]; SD female rats) | Tmax ([1]; SD female rats) | AUC0-24 h ([1]; SD female rats) | Cmax [1] | Stability of the monoglyceride form during in vitro incubation with porcine pancreatic lipase [2] | Transport of total TST derivatives in lymph (% of dose) [3] | Fold increase (compared with control group dosed with TU) [3] | Release of MPA on incubation with LPL supplemented rat lymph [4] | also measured
1-(1,3-Bis(palmitoyloxy)propan-2-yl) 4-((((8R,9S,10R,13S,14S,17S)-10,13-dimethyl-3-oxo-2,3,6,7,8,9,10,11,12,13,14,15,16,17-tetradecahydro-1H-cyclopenta[a]phen-anthren-17-yl)oxy)methyl) 2/3-methylsuccinate [Compounds 13/14] | 94.6 | 1.4 ± 0.1 h | 0.6453 ± 0.1449 µM·h | 568 ± 155 nmol/L | much more stable | 8.0 ± 2.5 % of dose | 4.2 | – | Systemic exposure of testosterone, fold higher than Compound 12 ([1]; SD female rats): ~13 fold
CCCCCCCCCCCCCCCC(=O)OCC(COC(=O)CCCCCCCCCCCCCCC)OC(=O)CC(C)CC(=O)OCOC(=O)CC/C(C)=C/Cc1c(O)c2c(c(C)c1OC)COC2=O (stereo not shown) [Compound 10, (E)-1-(1,3-Bis(palmitoyloxy)propan-2-yl) 5-(((6-(4-hydroxy-6-methoxy-7-methyl-3-oxo-1,3-dihydroisobenzofuran-5-yl)-4-methylhex-4-enoyl)oxy)methyl) 3-methyl-pentanedioate] | – | – | – | – | – | – | – | very rapid | –
CCCCCCCCCCCCCCCC(=O)OCC(COC(=O)CCCCCCCCCCCCCCC)OC(=O)CC(C)CC(=O)OC(C)OC(=O)CC/C(C)=C/Cc1c(O)c2c(c(C)c1OC)COC2=O (stereo not shown) [Compound 11, (E)-1-(1,3-Bis(palmitoyloxy)propan-2-yl) 5-(1-((6-(4-hydroxy-6-methoxy-7-methyl-3-oxo-1,3-dihydroisobenzofuran-5-yl)-4-methylhex-4-enoyl)oxy)ethyl) 3-methylpentanedioate] | – | – | – | – | – | – | – | very rapid | –
CCCCCCCCCCCCCCCC(=O)OCC(COC(=O)CCCCCCCCCCCCCCC)OC(=O)CCC(=O)OCO[C@H]1CC[C@H]2[C@@H]3CCC4=CC(=O)CC[C@]4(C)[C@H]3CC[C@]12C [Compound 12, 1,3-Bis(palmitoyloxy)propan-2-yl ((((8R,9S,10R,13S,14S,17S)-10,13-dimethyl-3-oxo-2,3,6,7,8,9,10,11,12,13,14,15,16,17-tetradecahydro-1H-cyclopenta[a]phenanthren-17-yl)oxy)methyl) succinate] | – | – | – | – | labile | – | – | – | –
CCCCCCCCCCC(=O)O[C@H]1CC[C@H]2[C@@H]3CCC4=CC(=O)CC[C@]4(C)[C@H]3CC[C@]12C [TU, testosterone undecanoate, reference compound] | 1.0 | 1.5 ± 0.0 h | 0.0068 ± 0.0004 µM·h | 5.6 ± 0.5 nmol/L | – | 1.9 ± 0.3 % of dose | 1.0 | – | Bioavailability of testosterone after oral administration of the undecanoate ester [5]: < 5%
C[C@]12CC[C@H]3[C@@H](CCC4=CC(=O)CC[C@@]43C)[C@@H]1CC[C@@H]2O [Testosterone, testosterone] | – | – | – | – | – | Below LOQ* | – | – | –

From patent publication US11738087B2, “Lymph directing prodrugs” (Monash University, priority 2015, dated 2023)
